According to ChEMBL document CHEMBL1201862, “PubChem BioAssay data set” (2004):
Active and inactive are the calls of the source. Cut-off read from the data, not from the text of the source, for most assays here: actives have a measured IC50 and inactives only a lower limit.

Experiments:
Format in all cases: functional
[1] = molecular target: T1, Sentrin-specific protease 6 (Homo sapiens, UniProt Q9GZR1); experiment: SAR Analysis of small molecule inhibitors of Sentrin-specific protease 6 (SENP6) using a Luminescent assay. [Related pubchem assays (depositor defined):AID2582, AID2599]
T1 sequence (Q9GZR1 whole entry): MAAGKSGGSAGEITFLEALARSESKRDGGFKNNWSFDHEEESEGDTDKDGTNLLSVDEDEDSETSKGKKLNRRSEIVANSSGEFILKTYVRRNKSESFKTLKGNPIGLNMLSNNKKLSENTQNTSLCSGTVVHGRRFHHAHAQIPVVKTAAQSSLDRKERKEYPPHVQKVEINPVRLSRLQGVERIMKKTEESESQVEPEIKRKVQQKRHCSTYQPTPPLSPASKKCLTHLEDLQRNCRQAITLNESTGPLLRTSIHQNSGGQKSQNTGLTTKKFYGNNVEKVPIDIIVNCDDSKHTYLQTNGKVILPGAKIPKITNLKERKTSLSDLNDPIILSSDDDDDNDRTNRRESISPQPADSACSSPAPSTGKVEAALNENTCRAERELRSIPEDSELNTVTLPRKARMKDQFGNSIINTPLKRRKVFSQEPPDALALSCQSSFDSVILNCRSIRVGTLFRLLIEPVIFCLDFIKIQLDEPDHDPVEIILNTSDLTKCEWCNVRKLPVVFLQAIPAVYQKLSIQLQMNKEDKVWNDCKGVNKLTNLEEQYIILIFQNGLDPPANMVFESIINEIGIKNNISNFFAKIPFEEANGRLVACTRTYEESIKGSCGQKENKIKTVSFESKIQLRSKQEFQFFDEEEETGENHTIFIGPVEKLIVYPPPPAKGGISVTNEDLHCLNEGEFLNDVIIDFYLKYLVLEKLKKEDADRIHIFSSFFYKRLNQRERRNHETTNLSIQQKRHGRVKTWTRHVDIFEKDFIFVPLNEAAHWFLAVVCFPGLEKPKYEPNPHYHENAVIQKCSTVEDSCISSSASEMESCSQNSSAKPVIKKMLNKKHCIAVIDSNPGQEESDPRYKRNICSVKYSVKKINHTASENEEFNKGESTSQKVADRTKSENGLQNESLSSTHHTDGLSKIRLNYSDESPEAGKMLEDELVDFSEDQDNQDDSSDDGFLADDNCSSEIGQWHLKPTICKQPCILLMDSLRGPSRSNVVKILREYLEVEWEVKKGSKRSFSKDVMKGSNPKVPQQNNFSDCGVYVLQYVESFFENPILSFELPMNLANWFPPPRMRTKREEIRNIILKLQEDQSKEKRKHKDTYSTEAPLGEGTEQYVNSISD

[2] = molecular target: T2, Sentrin-specific protease 7 (Homo sapiens, UniProt Q9BQF6); experiment: inhibition of human SENP7 cleavage activity – biochemical, luminescence, SAR follow-up (AID 504497)
T2 sequence (Q9BQF6 whole entry): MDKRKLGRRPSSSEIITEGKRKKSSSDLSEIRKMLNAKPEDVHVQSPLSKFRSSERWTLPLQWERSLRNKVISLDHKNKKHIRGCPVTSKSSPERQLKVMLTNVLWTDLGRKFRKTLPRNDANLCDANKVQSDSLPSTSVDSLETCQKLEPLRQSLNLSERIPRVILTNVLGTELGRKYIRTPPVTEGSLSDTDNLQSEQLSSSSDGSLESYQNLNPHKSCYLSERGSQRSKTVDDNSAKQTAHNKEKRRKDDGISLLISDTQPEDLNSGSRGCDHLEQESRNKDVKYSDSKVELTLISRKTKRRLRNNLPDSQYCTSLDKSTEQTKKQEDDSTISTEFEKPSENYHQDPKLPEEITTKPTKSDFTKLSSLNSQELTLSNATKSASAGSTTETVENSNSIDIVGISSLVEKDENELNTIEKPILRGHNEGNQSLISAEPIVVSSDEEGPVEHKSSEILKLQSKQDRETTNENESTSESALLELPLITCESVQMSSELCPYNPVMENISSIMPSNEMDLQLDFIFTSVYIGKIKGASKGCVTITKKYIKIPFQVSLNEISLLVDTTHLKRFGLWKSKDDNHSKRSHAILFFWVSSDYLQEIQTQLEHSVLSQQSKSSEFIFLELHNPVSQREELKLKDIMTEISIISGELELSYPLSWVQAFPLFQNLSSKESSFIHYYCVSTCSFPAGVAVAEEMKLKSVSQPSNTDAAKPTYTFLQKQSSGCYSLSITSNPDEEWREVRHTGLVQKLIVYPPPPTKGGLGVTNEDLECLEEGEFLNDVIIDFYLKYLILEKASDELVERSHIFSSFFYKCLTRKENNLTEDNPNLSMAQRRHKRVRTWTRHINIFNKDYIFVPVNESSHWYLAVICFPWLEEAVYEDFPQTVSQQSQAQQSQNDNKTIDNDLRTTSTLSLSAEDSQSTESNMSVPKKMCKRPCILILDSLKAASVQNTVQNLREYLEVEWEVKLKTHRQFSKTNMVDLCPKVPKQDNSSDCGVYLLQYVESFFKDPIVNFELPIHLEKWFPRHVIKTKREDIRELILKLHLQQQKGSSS

[3] = molecular target: T3, Caspase-3 (Homo sapiens, UniProt P42574); experiment: SAR Analysis of small molecule inhibitors of Sentrin-specific proteases (SENPs) using a Caspase-3 Selectivity assay. [Related pubchem assays (depositor defined):AID2540, AID2599, AID434973, AID489001]
T3 sequence (P42574 whole entry): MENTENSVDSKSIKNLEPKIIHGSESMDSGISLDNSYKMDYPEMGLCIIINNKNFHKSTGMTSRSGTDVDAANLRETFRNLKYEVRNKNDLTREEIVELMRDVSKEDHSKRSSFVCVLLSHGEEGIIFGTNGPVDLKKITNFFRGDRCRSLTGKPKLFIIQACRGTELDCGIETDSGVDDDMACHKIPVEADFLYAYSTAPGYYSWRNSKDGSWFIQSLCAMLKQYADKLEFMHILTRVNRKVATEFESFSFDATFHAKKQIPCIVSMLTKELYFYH

[4] = molecular target: T4, Sentrin-specific protease 8 (Homo sapiens, UniProt Q96LD8); experiment: inhibition of human SENP8 cleavage activity – biochemical, luminescence, SAR follow-up (AID 504501)
T4 sequence (Q96LD8 whole entry): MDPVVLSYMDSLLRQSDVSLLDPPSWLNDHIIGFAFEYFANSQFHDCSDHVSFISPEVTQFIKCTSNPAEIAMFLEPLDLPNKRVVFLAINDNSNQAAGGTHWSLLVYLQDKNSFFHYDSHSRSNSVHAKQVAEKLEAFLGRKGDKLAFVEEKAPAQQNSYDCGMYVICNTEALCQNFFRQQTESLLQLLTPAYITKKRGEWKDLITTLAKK

[5] = molecular target: T5, High affinity choline transporter 1 (Homo sapiens, UniProt Q9GZV3); experiment: human choline transporter blockers, potency – cell-based, 5-point CRC, membrane potential dye, dose response (AID 504840)
T5 sequence (Q9GZV3 whole entry): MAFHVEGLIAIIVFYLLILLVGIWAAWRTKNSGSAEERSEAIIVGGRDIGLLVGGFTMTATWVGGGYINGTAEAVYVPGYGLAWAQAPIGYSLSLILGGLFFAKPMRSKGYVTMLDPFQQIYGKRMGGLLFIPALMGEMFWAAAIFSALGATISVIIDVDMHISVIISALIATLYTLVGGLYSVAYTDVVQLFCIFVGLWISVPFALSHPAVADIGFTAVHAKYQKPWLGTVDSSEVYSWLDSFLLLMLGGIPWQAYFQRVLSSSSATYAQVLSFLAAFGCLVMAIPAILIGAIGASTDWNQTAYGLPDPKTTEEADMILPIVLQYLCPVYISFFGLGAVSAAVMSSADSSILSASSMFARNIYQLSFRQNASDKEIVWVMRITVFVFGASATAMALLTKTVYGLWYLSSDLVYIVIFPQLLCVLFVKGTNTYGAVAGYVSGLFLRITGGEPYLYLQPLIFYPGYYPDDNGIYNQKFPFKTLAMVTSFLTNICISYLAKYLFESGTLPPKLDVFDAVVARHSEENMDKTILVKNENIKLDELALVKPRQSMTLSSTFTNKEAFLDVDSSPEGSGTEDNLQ

[6] = molecular target: T5, High affinity choline transporter 1; experiment: human choline transporter blockers, potency – cell-based, 10-point CRC, membrane potential dye, dose response (AID 588401);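 note: membrane potential dye fluorescence of choline-evoked depolarization via CHT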
[7] = test system: H4; experiment: Luminescence Cell-Based Dose Response HTS to Identify Activators of 5'UTR Stem-Loop Driven Prion Protein mRNA Translation in H4 Neuroglioblastoma Cells. [Related pubchem assays: 1829 (Project Summary), 1814 (Primary HTS)]; settings: Homo sapiens
[8] = molecular target: T1, Sentrin-specific protease 6
[9] = Luminescence Cell-Based Dose Confirmation HTS to Identify Activators of 5'UTR Stem-Loop Driven Alpha-Synuclein mRNA Translation in H4 Neuroglioblastoma Cells. [Related pubchem assays: 1829 (Project Summary), 1814 (Primary HTS)]
[10] = molecular target: T3, Caspase-3
[11] = molecular target: T2, Sentrin-specific protease 7
[12] = molecular target: T4, Sentrin-specific protease 8

| SMILES | IC50 [1] | IC50 [2] | IC50 [3] | IC50 [4] | IC50 [5] | IC50 [6] | EC50 [7] | IC50 [8] | EC50 [9] | IC50 [10] | IC50 [11] | IC50 [12] |
| --- | --- | --- | --- | --- | --- | --- | --- | --- | --- | --- | --- | --- |
| C(=N\Nc1ccccc1)/c1c[nH]c2ccccc12 | > 99 µM (inactive) | 25.7 µM (active) | > 99 µM (inactive) | > 99 µM (inactive) |  |  |  |  |  |  |  |  |
| CC(C)(C)NCC(O)Cn1cc(C=O)c2ccccc21 (stereo not drawn) |  |  |  |  | 0.738 µM (active) | 0.113 µM (active) |  |  |  |  |  |  |
| O=C(COc1ccccc1Br)c1ccc(O)cc1O |  |  |  |  | 2.29 µM (active) | 11.2 µM (active) |  |  |  |  |  |  |
| O=C(O)c1ccc(N/N=C/c2cn(Cc3ccc(F)cc3)c3ccccc23)cc1 | 6.8 µM (active) | 5.08 µM (active) | 49.8 µM (active) | 6.77 µM (active) |  |  | > 120 µM (not active) | 7.91 µM (active) | > 120 µM (not active) | 89.1 µM (active) | 8.78 µM (active) | 12.4 µM (active) |
